Measurements taken from patent US20090324754A1, “EUCALYPTUS EXTRACT, METHOD OF PREPARATION AND THERAPEUTIC USES THEREOF” (Pierre Fabre Medicament, priority 2006, published 2009).

Target: T1, serotonin reuptake (Rattus norvegicus, UniProt P31652)
T1 construct: Synapses obtained from rat brains; from tissue; host or cells: rat brain synapses (synaptosomes)
Assay: Serotonin (5-HT) reuptake, [3H]-serotonin uptake in rat brain synapses
Format: biochemical
Details: 0.3 μg of extract/ml of solution
Experimental: The uptake tests were carried out in vitro on synapses of rats.
The baseline activity is determined by incubating the same mixture for 15 minutes at 37° C. in the presence of 10 μM imipramine in order to block the reuptake.
Following the incubation, the samples are filtered rapidly in vacuo through glass-fibre filters (GB/B, Packard) and rinsed twice with ice-cold incubation buffer in order to eliminate free [^3H]-serotonin. The filters are dried and the retained radioactivity is measured by means of a scintillation counter (Topcount, Packard) using a scintillation cocktail (Microscint O, Packard).
The results are expressed as a percent inhibition of the control uptake of [^3H]-serotonin (see Table 1)

T1 sequence (P31652 whole entry): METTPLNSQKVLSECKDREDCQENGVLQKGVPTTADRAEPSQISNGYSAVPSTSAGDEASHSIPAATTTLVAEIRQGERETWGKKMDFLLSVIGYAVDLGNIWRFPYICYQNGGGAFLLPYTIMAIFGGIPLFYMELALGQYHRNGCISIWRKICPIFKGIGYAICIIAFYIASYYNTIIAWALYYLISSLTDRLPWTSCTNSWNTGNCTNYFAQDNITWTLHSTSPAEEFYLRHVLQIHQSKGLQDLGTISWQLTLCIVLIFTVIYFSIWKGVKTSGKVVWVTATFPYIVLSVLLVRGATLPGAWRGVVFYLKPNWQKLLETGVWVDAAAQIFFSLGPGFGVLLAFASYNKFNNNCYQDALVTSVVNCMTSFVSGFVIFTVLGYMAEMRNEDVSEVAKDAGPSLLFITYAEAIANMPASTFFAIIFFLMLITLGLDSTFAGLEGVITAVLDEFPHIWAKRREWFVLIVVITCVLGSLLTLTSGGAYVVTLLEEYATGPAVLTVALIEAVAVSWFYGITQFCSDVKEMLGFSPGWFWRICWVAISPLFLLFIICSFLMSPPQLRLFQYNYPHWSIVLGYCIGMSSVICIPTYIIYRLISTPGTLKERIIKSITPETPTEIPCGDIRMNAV

For `C=C1CCC2C(C3C1CCC3(C)C(CC(C)C)c1c(O)c(C=O)c(O)c(C=O)c1O)C2(C)C` (stereo not shown) [Macrocarpal G, 5-(1-(3,3,11-trimethyl-7-methylene-tricyclo(6.3.0.0(2,4))undec-11-yl)-3-methylbutyl)-2,4,6-trihydroxybenzene-1,3-dicarbaldehyde], the “% inhibition of serotonin reuptake” value was 103.8%.
